The source of these data is paper PMC8156206, “Novel N,N′-Disubstituted Selenoureas as Potential Antioxidant and Cytotoxic Agents” (Antioxidants, 2021).

Read-outs that look alike come from different tables or passages of the source. Where only a bound is given, the exact number is not on record here.

For data set [1], the system named is HTB-54 cells (lung adenocarcinoma). The data set is described as follows: MTT cell viability assay, HTB-54. Type of data set: cell-based, human. The settings on record: for IC50 / viability at 10 µM / viability at 50 µM: Homo sapiens; for IC50: read-out: IC50 HTB-54 (lung); for viability at 10 µM / viability at 50 µM: read-out: cell viability, percentage of live cells. Here is the method:
(§1) Cell lines were purchased from the American Type Culture Collection (ATCC). MCF-7, HTB-54, BEAS-2B and 184B5 cell lines were grown in RPMI 1640 medium (Gibco) supplemented with 10% fetal bovine serum (FBS; Gibco), 100 units/mL penicillin, and […] streptomycin (Gibco). HT-29 and HCT-116 cell lines was cultured in McCoy’s 5A (Gibco), 10% FBS, 100 units/mL penicillin, and 100 μg/mL streptomycin. Cells were maintained at 37 °C and 5% CO2. Culture medium was replaced every three days.
(§2) A cell viability assay of each compound was carried out using an MTT assay. Each selenourea was dissolved in dimethyl sulfoxide (DMSO) at a concentration of 0.01 M. Serial dilutions were prepared with non-supplemented culture medium. Cytotoxic activity of each selenourea was determined at two different concentrations (10 and 50 µM) in MCF-7, HTB-54, and HT-29 cells. In addition, selected compounds were tested at seven different concentrations (0.1, 1, 5, 10, 25, 50, 100 µM) on MCF-7, HT-29, HCT-116, HTB-54, 184B5, and BEAS-2B cells. The number of passages before defrosting the cells was 3, and they were kept under culture up to a maximum of 15.
(§3) Briefly, 1 × 10^4 cells/well were grown in 96-well plates for 24 h. Then, these cells were incubated with either DMSO (negative control) at 5 µM or a different concentration of each tested selenourea for 48 h. A volume of 20 µL of MTT was added 150 min before the termination point to measure cellular viability. After this time, culture medium was removed. The resultant formazan crystals were dissolved in 50 µL of DMSO, and absorbance was measured at 570 nm. Results are expressed as IC50, the half maximal inhibitory concentration. This value was calculated using GraphPad Prism 7 software by nonlinear curve fitting. Furthermore, the selectivity index (SI) was calculated as the ratio of the IC50 values determined for the non-malignant and the tumoral cells (IC50 (184B5)/IC50 (MCF-7) or (IC50 (BEAS-2B)/IC50 (HTB-54). Data were obtained from at least three independent experiments performed in triplicates.
(§4) The cytotoxic effects of synthesized compounds were evaluated against three human cancer cell lines: breast adenocarcinoma (MCF-7), lung adenocarcinoma (HTB-54), and colon carcinoma (HT-29), using a 3-[4,5-dimethylthiazol-2-yl]-2,5-diphenyltetrazolium bromide (MTT) assay. Firstly, the compounds were screened at two doses (50 and 10 µM) and after 48 h of treatment. The results are summarized in Figure 4 and are presented as percentages of growth inhibition related to control.

Data set [2] relates to MCF-7 cells (breast adenocarcinoma). The data set is described as follows: MTT cell viability assay, MCF-7. It counts as cell-based, human. The note with it: for IC50 / viability at 10 µM / viability at 50 µM: Homo sapiens; for IC50: read-out: IC50 MCF-7 (breast); for viability at 10 µM / viability at 50 µM: read-out: cell viability, percentage of live cells; for SI (selectivity index) breast: IC50 (184B5)/IC50 (MCF-7). Here is the method: as §1, §2, §3, §4

Data set [3] is described as follows: DPPH radical scavenging assay. The procedure:
(§5) From all the methods available for the prediction of the antioxidant properties, DPPH^● and ABTS^●+ assays were chosen according to their simplicity, accessibility, and effectiveness for a fast prediction of radical scavenging activities in vitro. The radical scavenging capacity of the novel selenoureas was determined by DPPH^● and ABTS^●^+ assays. Measurements were recorded on a BioTeck PowerWave XS spectrophotometer (BioTeck Instruments, Winooski (VT), USA) and the data were collected using KCJunior software (BioTeck Instruments, Winooski (VT), USA).
A DPPH assay was performed, as described by Svinyarov. Stock solutions of 1 mg/mL were initially prepared for each selenourea in methanol and this solution was used for the preparation of the different concentrations employed in the assay. Ascorbic acid (Asc) was used as positive control due to the literature reports that this derivative is a potent antioxidant and radical scavenger. A volume of 100 µL from a previously prepared stock solution (preserved in dark and daily prepared) of DPPH (100 µM) in methanol were added to 100 µL of the methanolic selenoureas solutions prepared previously, and the antioxidant activity these compounds was assessed by its ability to decolorize DPPH● radical (purple color in methanol) to DPPHH (colorless). Thus, radical scavenging activity was estimated by the decrease in the absorbance at 517 nm. Determinations were recorded at different time-points. All the measurements were carried out in triplicate. Results are expressed as the percentage of the radicals scavenged, calculated using the following formula:(1) % DPPH radical scavenging=Acontrol − Asample/Acontrol × 100 where Acontrol refers to the absorbance of the negative control and Asample refers to the absorbance of the tested compounds. Results are expressed as percentage of DPPH radical scavenging ± SD.
In order to determine the radical scavenging of these newly synthesized selenourea derivatives, the DPPH assay was firstly employed. Measurements were performed at four different concentrations ranging from 0.0003 to 0.03 mg/mL, and collected at time-points between 0 min and 120 min (Figures S81–S100). Results are presented as the percentage of inhibition for DPPH radical scavenging activity.

In data set [4] the test system is 184B5 cells (breast non-malignant derived cell line). The data set is described as follows: MTT cell viability assay, 184B5. The note with it: Homo sapiens, read-out: IC50 184B5 (breast, non-malignant). It counts as cell-based. Here is the method:
as §1, §2, §3

For data set [5], the system named is HT-29 cells (colon carcinoma). The data set is described as follows: MTT cell viability assay, HT-29. Type of data set: cell-based. The note with it: Homo sapiens; for IC50: read-out: IC50 HT-29 (colon); for viability at 10 µM / viability at 50 µM: read-out: cell viability, percentage of live cells. The procedure:
as §1, §2, §3, §4

The test system of data set [6] is BEAS-2B cells (lung non-malignant derived cell line). Kind of data set: MTT cell viability assay, BEAS-2B. The settings on record: Homo sapiens, 48 h, mean ± SD. It counts as cell-based. Here is the method:
as §1, §2, §3

Data set [7] can be described thus: Stability of the selenoureas before screening. Type of data set: physicochemical.
The subject of the next data set is HCT-116 cells (colon). Kind of data set: MTT cell viability assay, HCT-116. Type of data set: cell-based. The note with it: Homo sapiens, HCT-116, 48 h, read-out: IC50 HCT-116 (colon). Here is the method:
as §1, §2, §3

Data set [8] is described as follows: ABTS radical scavenging assay. The settings on record: 0.003 mg/mL, 60 min. The procedure:
as §5
As well as DPPH, ABTS radical scavenging assay is a colorimetric method. ABTS (2,2′-azino-bis(3-ethylbenzothiazoline-6-sulfonic acid) was dissolved in deionized water at 1 mg/mL and oxidized to ABTS^●+ with potassium persulfate (2.45 mM final concentration). This oxidation process is not instantaneous, and the reaction mixture was kept in the dark overnight at room temperature. After ABTS^●+ radical was generated, the ABTS^●+ solution was diluted with 50% ethanol until an absorbance of 0.70 ± 0.02 at 734 nm for measurements was achieved. Stock solution of 1 mg/mL in absolute ethanol was prepared for each selenourea, and different dilutions were prepared to reach the final concentration, when 20 µL of this solution were added to 180 µL of the diluted ABTS^●+. The absorbance at 734 nm was recorded using 50% ethanol as blank. Trolox and Asc were used as positive controls. All determinations were carried out in triplicate. Same time intervals as in the DPPH assay were also measured. The ability to scavenge ABTS^●+ was calculated using the following formula:(2) % ABTS radical scavenging=Acontrol − Asample/Acontrol × 100 where Acontrol refers to the absorbance of the negative control and Asample refers to the absorbance of the tested compounds. The results are expressed as percentage of ABTS radical scavenging ± SD.
In order to confirm the antioxidant activity of the selenoureas, we performed an additional ABTS (2,2′-azino-bis(3-ethylbenzothiazoline-6-sulfonic acid) radical scavenging assay. Following the results obtained in the DPPH assay, this experiment was performed at 0.03 and 0.003 mg/mL. Measurements were recorded after 0′, 6′ and 60′ of incubation with ABTS. For comparison purposes, Trolox and ascorbic acid were used as references. The remarkable results are summarized in Figure 3.

Turning to `[Se]=C(NCc1nccs1)Nc1ccccc1` [Compound 2a], the melting point stood at 149 °C. Also, in data set [1] (HTB-54, 48 h, MTT, mean ± SD), the IC50 is greater than 10 µM. In data set [1] (HTB-54, 10 µM, 48 h, MTT), the viability at 10 µM was 51.1%. Moreover, the viability at 50 µM in data set [1] (HTB-54, 50 µM, 48 h, MTT) came out at 45.7%. Moreover, in data set [2] (MCF7, 48 h, MTT, mean ± SD), the IC50 came to 9.16 ± 3.49 µM. In addition, the viability at 10 µM in data set [2] (MCF7, MCF-7, 10 µM, 48 h, MTT) is 41%. For the same molecule, in [2] (MCF7, MCF-7, 50 µM, 48 h, MTT), the viability at 50 µM was 42.8%. Moreover, the “SI (selectivity index) breast” value in data set [2] was 1.20. The “DPPH radical scavenging kinetics” value in [3] (0.03 mg/mL, time-point 0 min) is on record as “reaching the maximum activity at time-point 0′”. In addition, in data set [4] (184B5, 48 h, MTT, mean ± SD), the IC50 amounted to 11 ± 0.73 µM. Also, the IC50 in data set [5] (HT-29, 48 h, MTT, mean ± SD) was greater than 10 µM. Besides, in data set [5] (HT-29, 10 µM, 48 h, MTT), the viability at 10 µM stood at 79.7%. In addition, the viability at 50 µM in [5] (HT-29, 50 µM, 48 h, MTT) was determined as 47.3%.

In turn, `Clc1ccc(NC(=[Se])NCc2nccs2)cc1` [Compound 2d] had a melting point of 165 °C. In addition, the IC50 in data set [1] (HTB-54, 48 h, MTT, mean ± SD) is 8.65 ± 0.29 µM. Further, in data set [1] (HTB-54, 10 µM, 48 h, MTT), the viability at 10 µM was 45.8%. In [1] (HTB-54, 50 µM, 48 h, MTT), the viability at 50 µM worked out at 37.2%. Further, in data set [1] (IC50 (BEAS-2B)/IC50 (HTB-54)), the “SI (selectivity index) lung” value stood at 0.60. In addition, the IC50 in [2] (MCF7, 48 h, MTT, mean ± SD) was greater than 10 µM. In addition, the viability at 10 µM in data set [2] (MCF7, MCF-7, 10 µM, 48 h, MTT) was 59.7%. The viability at 50 µM in data set [2] (MCF7, MCF-7, 50 µM, 48 h, MTT) is 35%. In [3] (at lower concentrations), the “DPPH radical scavenging capacity compared with ascorbic acid” value is recorded as “greater radical scavenging capacity than ascorbic acid”. Moreover, the IC50 in data set [5] (HT-29, 48 h, MTT, mean ± SD) was greater than 10 µM. Further, the viability at 10 µM in [5] (HT-29, 10 µM, 48 h, MTT) is 77.2%. Moreover, in data set [5] (HT-29, 50 µM, 48 h, MTT), the viability at 50 µM turned out to be 67.1%. The IC50 in data set [6] worked out at 5.22 ± 0.07 µM.

`CCCCNC(=[Se])Nc1ccccc1` [Compound 4a] came in with a melting point of 69 °C. Besides, in data set [7], the “stability of the compound before screening” value (shortened to “stability”) was “decomposed before screening”.

Molecule `CCCCNC(=[Se])Nc1ccc(C)cc1` [Compound 4b] yielded a melting point of 46 °C. Moreover, the “stability” value in data set [7] is listed as “decomposed before screening”.

`CCCCNC(=[Se])Nc1ccc(OC)cc1` [Compound 4c] gave a melting point of 89 °C. Further, the “stability” value in data set [7] is reported as “decomposed before screening”.

Regarding `CCCCCCNC(=[Se])Nc1ccccc1` [Compound 5a], the melting point was found to be 59 °C. In data set [7], the “stability” value is listed as “decomposed before screening”.

Take `CCCCCCNC(=[Se])Nc1ccc(C)cc1` [Compound 5b]: the melting point stood at 88 °C. Also, the “stability” value in data set [7] is “decomposed before screening”.

`[Se]=C(Nc1ccccc1)NC12CC3CC(CC(C3)C1)C2` [Compound 6a, N´-adamantyl-N-(phenyl)selenourea]: the melting point was found to be 161 °C. In [1] (HTB-54, 48 h), the IC50 was greater than 10 µM, the viability at 10 µM turned out to be 51.9% and the viability at 50 µM came to 15.7%. Further, in [2] (MCF7, 48 h), the IC50 is 9.88 ± 1.46 µM, the viability at 10 µM was 54.3% and the viability at 50 µM was found to be 18.2%. In addition, the “SI (selectivity index) breast” value in data set [2] is recorded as 2.25. For the same molecule, the IC50 in data set [4] (184B5, 48 h) amounted to 22.2 ± 4.07 µM. Besides, the IC50 in the data set with HCT-116 cells (colon) is 5.69 ± 0.71 µM. In data set [5] (HT-29, 48 h), the IC50 was determined as 5.03 ± 3.06 µM, the viability at 10 µM was found to be 43% and the viability at 50 µM turned out to be 33.9%. Further, in data set [8], the “ABTS radical scavenging activity compared with Trolox” value is “significant lower radical scavenging activity than Trolox”.
